Experimental data taken from patent US12121522B2, “Methods of treating cancer with an mTOR inhibitor” (Revolution Medicines, Inc., priority 2022, dated 2024).
Values joined by “and” are separate entries in the source; they are usually repeats but may differ in a detail not shown here. Equal entries are not always repeated.

What was measured:
[1] = Clinical plasma PK, study RMC-5552-001; assay type: in vivo, human
Text: The plasma PK of RMC-5552 in subjects was characterized after single- and repeat-dose administration via IV infusion. […] Sparse PK samples were collected on other visit days as indicated in the clinical study protocol, including End of Infusion (EOI) samples on Cycle 1 Day 8 (C1D8), Cycle 2 Day 1 (C2D1), Cycle 3 Day 1 (C3D1), and Cycle 4 Day 1 ([…]) to approximate maximum concentration (Cmax). The plasma PK of RMC-5552 in subjects was characterized after single- and repeat dose administration via intravenous (IV) infusion. […] Sparse PK samples were collected on other visit days as indicated in the clinical study protocol, including EOI samples on C1D8, C2D1, C3D1, and […] to approximate Cmax. […] AUC0-last value was not calculated on C1D8, C2D1, C3D1, or […] due to limited PK time points (pre-dose and EOI).

mucositis/stomatitis = assay: Mouthwash prophylaxis of mucositis in patients on RMC-5552; assay type: in vivo, human; details: RMC-5552 8 to 12 mg IV weekly; without TM N=20, with TM N=7
Procedure: Table 9 presents data from all patients (N=27) treated either with dexamethasone mouthwash alone, or dexamethasone mouthwash plus tacrolimus mouthwash at 8 mg (N=16), 10 mg (N=8), and 12 mg (N=3) IV QW. Median time on treatment (min, max) was 2.6 months for patients treated at 8 mg IV QW with dexamethasone mouthwash alone (N=13), 1.2 months for patients treated at 8 mg IV QW with dexamethasone mouthwash plus tacrolimus mouthwash (N=3), 0.9 months for patients treated at 10 mg IV QW with dexamethasone mouthwash alone (N=5), 2.0 months for patients treated at 10 mg IV QW with dexamethasone mouthwash plus tacrolimus mouthwash (N=3), 9.1 months for patients treated at 12 mg IV QW with dexamethasone mouthwash alone (N=2), and 0.4 months for patients treated at 12 mg IV QW with dexamethasone mouthwash plus tacrolimus mouthwash (N=1). […] Among all dose levels, the frequency of Grade 3 or worse events, frequency and severity of mucositis, and frequency of AEs leading to dose modification were lower in those patients treated with tacrolimus mouthwash.
Subjects received dexamethasone alone or dexamethasone plus tacrolimus mouthwash(es). […] At baseline (C1D1 predose), subjects rinse with the mouthwash(es) once at least 15 minutes prior to the first dose of study intervention. […]

SMILES: CO[C@H]1C[C@@H]2CC[C@@H](C)[C@@](O)(O2)C(=O)C(=O)N2CCCC[C@H]2C(=O)O[C@H]([C@H](C)C[C@@H]2CC[C@@H](OC(=O)NCCOCCOCCOCCOCCOCCOCCOCCOCCC(=O)N3CCc4cc(Cn5nc(-c6ccc7oc(N)nc7c6)c6c(N)ncnc65)ccc4C3)[C@H](OC)C2)C[C@@H](O)[C@H](C)/C=C(\C)[C@@H](O)[C@@H](OC)C(=O)[C@H](C)C[C@H](C)/C=C/C=C/C=C/1C [RMC-5552]
- Mean Accumulation Ratio (AUC0-last on D15/D1) ([1]; 1.6 mg): 2.4
- Cmax ([1]; 1.6 mg 1-h IV inf, C1D1): 21.6 nM
- Mean AUC0-last ([1]; 1.6 mg, C1D1): 29.7 nM·h
- Mean Dose Normalized AUC0-last ([1]; 1.6 mg, C1D1): 18.6 nM·h/mg
- Mean Unbound AUC0-last ([1]; 1.6 mg, C1D1): 1.7 nM·h
- Mean Unbound Cmax ([1]; 1.6 mg, C1D1): 1.2 nM
- Cmax ([1]; 1.6 mg, C1D15): 35.3 nM
- Mean AUC0-last ([1]; 1.6 mg, C1D15): 55.5 nM·h
- Mean Dose Normalized AUC0-last ([1]; 1.6 mg, C1D15): 34.7 nM·h/mg
- Mean Unbound AUC0-last ([1]; 1.6 mg, C1D15): 3.2 nM·h
- Mean Unbound Cmax ([1]; 1.6 mg, C1D15): 2.0 nM
- Cmax ([1]; 1.6 mg, C2D1 (EOI)): 24.7 nM
- Mean Unbound Cmax ([1]; 1.6 mg, C2D1 (EOI)): 1.4 nM
- Mean Accumulation Ratio (AUC0-last on D15/D1) ([1]; 3 mg): 2.1
- Cmax ([1]; 3 mg 1-h IV inf, C1D1): 32 nM
- Mean AUC0-last ([1]; 3 mg, C1D1): 43.9 nM·h
- Mean Dose Normalized AUC0-last ([1]; 3 mg, C1D1): 14.6 nM·h/mg
- Mean Unbound AUC0-last ([1]; 3 mg, C1D1): 2.5 nM·h
- Mean Unbound Cmax ([1]; 3 mg, C1D1): 1.8 nM
- Cmax ([1]; 3 mg, C1D15): 67.5 nM
- Mean AUC0-last ([1]; 3 mg, C1D15): 87.5 nM·h
- Mean Dose Normalized AUC0-last ([1]; 3 mg, C1D15): 29.2 nM·h/mg
- Mean Unbound AUC0-last ([1]; 3 mg, C1D15): 5.0 nM·h
- Mean Unbound Cmax ([1]; 3 mg, C1D15): 3.8 nM
- Cmax ([1]; 3 mg, C2D1 (EOI)): 74.2 nM
- Mean Unbound Cmax ([1]; 3 mg, C2D1 (EOI)): 4.2 nM
- Mean Accumulation Ratio (AUC0-last on D15/D1) ([1]; 6 mg): 1.6
- Cmax ([1]; 6 mg 1-h IV inf, C1D1): 101 nM
- Mean AUC0-last ([1]; 6 mg, C1D1): 137 nM·h
- Mean Dose Normalized AUC0-last ([1]; 6 mg, C1D1): 22.1 nM·h/mg
- Mean Unbound AUC0-last ([1]; 6 mg, C1D1): 7.8 nM·h
- Mean Unbound Cmax ([1]; 6 mg, C1D1): 5.8 nM
- Mean t1/2 ([1]; 6 mg, C1D1): 8.1 h
- Unbound AUC0-last (Table 3) ([1]; 6 mg, C1D1): 7.8 nM·h
- Unbound Cmax (Table 3) ([1]; 6 mg, C1D1): 5.6 nM
- Cmax ([1]; 6 mg, C1D8 (EOI)): 150 nM
- Mean Unbound Cmax ([1]; 6 mg, C1D8 (EOI)): 8.5 nM
- Cmax ([1]; 6 mg, C1D15): 155 nM
- Mean AUC0-last ([1]; 6 mg, C1D15): 219 nM·h
- Mean Dose Normalized AUC0-last ([1]; 6 mg, C1D15): 36.6 nM·h/mg
- Mean Unbound AUC0-last ([1]; 6 mg, C1D15): 12.5 nM·h
- Mean Unbound Cmax ([1]; 6 mg, C1D15): 8.9 nM
- Mean t1/2 ([1]; 6 mg, C1D15): 8.2 h
- Unbound AUC0-last (Table 3) ([1]; 6 mg, C1D15): 12.1 nM·h
- Unbound Cmax (Table 3) ([1]; 6 mg, C1D15): 8.7 nM
- Cmax ([1]; 6 mg, C2D1 (EOI)): 159 nM
- Mean Unbound Cmax ([1]; 6 mg, C2D1 (EOI)): 9.1 nM
- Cmax ([1]; 6 mg, C3D1 (EOI)): 187 nM
- Mean Unbound Cmax ([1]; 6 mg, C3D1 (EOI)): 10.7 nM
- Cmax ([1]; 6 mg, C4D1 (EOI)): 220 nM
- Mean Unbound Cmax ([1]; 6 mg, C4D1 (EOI)): 12.5 nM
- Mean Accumulation Ratio (AUC0-last on D15/D1) ([1]; 8 mg): 2.6
- Cmax ([1]; 8 mg 1-h IV inf, C1D1): 152 nM
- Mean AUC0-last ([1]; 8 mg, C1D1): 219 nM·h
- Mean Dose Normalized AUC0-last ([1]; 8 mg, C1D1): 27.4 nM·h/mg
- Mean Unbound AUC0-last ([1]; 8 mg, C1D1): 12.5 nM·h
- Mean Unbound Cmax ([1]; 8 mg, C1D1): 8.6 nM
- Mean t1/2 ([1]; 8 mg, C1D1): 11.4 h
- Unbound AUC0-last (Table 3) ([1]; 8 mg, C1D1): 11.7 nM·h
- Unbound Cmax (Table 3) ([1]; 8 mg, C1D1): 8.6 nM
- Cmax ([1]; 8 mg, C1D8 (EOI)): 242 nM
- Mean Unbound Cmax ([1]; 8 mg, C1D8 (EOI)): 13.8 nM
- Cmax ([1]; 8 mg, C1D15): 340 nM
- Mean AUC0-last ([1]; 8 mg, C1D15): 466 nM·h
- Mean Dose Normalized AUC0-last ([1]; 8 mg, C1D15): 58.3 nM·h/mg
- Mean Unbound AUC0-last ([1]; 8 mg, C1D15): 26.6 nM·h
- Mean Unbound Cmax ([1]; 8 mg, C1D15): 19.4 nM
- Mean t1/2 ([1]; 8 mg, C1D15): 10.6 h
- Unbound AUC0-last (Table 3) ([1]; 8 mg, C1D15): 26.6 nM·h
- Unbound Cmax (Table 3) ([1]; 8 mg, C1D15): 20.1 nM
- Cmax ([1]; 8 mg, C2D1 (EOI)): 282 nM
- Mean Unbound Cmax ([1]; 8 mg, C2D1 (EOI)): 16.1 nM
- Cmax ([1]; 8 mg, C3D1 (EOI)): 295 nM
- Mean Unbound Cmax ([1]; 8 mg, C3D1 (EOI)): 16.8 nM
- Cmax ([1]; 8 mg, C4D1 (EOI)): 208 nM
- Mean Unbound Cmax ([1]; 8 mg, C4D1 (EOI)): 11.8 nM
- Cmax ([1]; 10 mg 2-h IV inf, C1D1): 115 nM
- Mean Accumulation Ratio (AUC0-last on D15/D1) ([1]; 10 mg 2-h inf): 1.7
- Mean AUC0-last ([1]; 10 mg 2-h inf, C1D1): 366 nM·h
- Mean Dose Normalized AUC0-last ([1]; 10 mg 2-h inf, C1D1): 36.6 nM·h/mg
- Mean Unbound AUC0-last ([1]; 10 mg 2-h inf, C1D1): 20.9 nM·h
- Mean Unbound Cmax ([1]; 10 mg 2-h inf, C1D1): 6.6 nM
- Mean t1/2 ([1]; 10 mg 2-h inf, C1D1): 13.5 h
- Cmax ([1]; 10 mg 2-h inf, C1D15): 181 nM
- Mean AUC0-last ([1]; 10 mg 2-h inf, C1D15): 527 nM·h
- Mean Dose Normalized AUC0-last ([1]; 10 mg 2-h inf, C1D15): 52.7 nM·h/mg
- Mean Unbound AUC0-last ([1]; 10 mg 2-h inf, C1D15): 30.0 nM·h
- Mean Unbound Cmax ([1]; 10 mg 2-h inf, C1D15): 10.3 nM
- Mean t1/2 ([1]; 10 mg 2-h inf, C1D15): 4.2 h
- Cmax ([1]; 10 mg 2-h inf, C2D1): 290 nM
- Mean Unbound Cmax ([1]; 10 mg 2-h inf, C2D1): 16.5 nM
- Unbound AUC0-last (Table 3) ([1]; 10 mg, C1D1, N=2): 14.2 nM·h
- Unbound Cmax (Table 3) ([1]; 10 mg, C1D1, N=2): 11 nM
- Cmax ([1]; 12 mg 1-h IV inf, C1D1): 396 nM
- Mean AUC0-last ([1]; 12 mg, C1D1): 490 nM·h
- Mean Dose Normalized AUC0-last ([1]; 12 mg, C1D1): 40.9 nM·h/mg
- Mean Unbound AUC0-last ([1]; 12 mg, C1D1): 28.0 nM·h and 28 nM·h
- Mean Unbound Cmax ([1]; 12 mg, C1D1): 22.6 nM
- Mean t1/2 ([1]; 12 mg, C1D1): 8.3 h
- Unbound AUC0-last (Table 3) ([1]; 12 mg, C1D1, N=2): 28.2 nM·h
- Unbound Cmax (Table 3) ([1]; 12 mg, C1D1, N=2): 22.6 nM
- exposure (Cmax and AUC0-last) on C1D15 relative to C1D1 ([1]; weekly repeat dosing, 1.6 to 8 mg): about 2 fold
- rate of grade 3 mucositis/stomatitis (mucositis/stomatitis): 15%
- rate of mucositis/stomatitis (mucositis/stomatitis): 75%
